One compound from US10227349B2, “Pyrazolo[1,5-a]pyrimidine compound” (Eisai R&D Management Co., Ltd., priority 2016, dated 2019) can be followed below.

The subject of test [1] is mite antigen-induced dermatitis in NC/NgaTndCrlj mice. The test can be described thus: Model for mite antigen-induced atopic dermatitis (dermatitis score). Further details: key: sum of 5 findings, each 0 = none, 1 mild, 2 moderate, 3 severe. In kind it is in vivo, mouse. Here is the method:
A 4 w/v % SDS solution (0.15 mL/mouse) was first applied to the dorsal region and auricle region of 8-week old male NC/NgaTndCrlj mice (Charles River Laboratories Japan, Inc.) under isoflurane inhalation anesthesia. About 3 hours after the application of the 4 w/v % SDS solution (0.15 mL/mouse), a 1 mL-polypropylene disposable syringe (Terumo Corporation) was filled with Bio stir AD (Biostir Inc.) as a mite antigen ointment which was applied to the dorsal region and auricle region (0.1 mL/mouse). Every 2 or 3 days, the 4 w/v % SDS solution (0.15 mL/mouse) and Biostir AD were applied to a total of 8 times including the initial application by the same method to induce dermatitis. After inducing the dermatitis, the conditions of the skin at the application sites (assessments other than itching behavior) were observed and the dermatitis findings 1) to 5) described below were scored based on the evaluation criteria for the clinical symptoms of human atopic dermatitis. Note that the scoring of the dermatitis findings 1) to 5) has 0 for no symptom, 1 for mild, 2 for moderate and 3 for severe. The dermatitis score of each individual is the total of the dermatitis findings 1) to 5). Grouping (15 mice per group) was carried out randomly so that each group had substantially the same (no statistically significant difference) average dermatitis score (total) and average body weight. For 14 days from the day on which the grouping was carried out, an administration solution containing the test compound (10 mL/kg) was orally administered to the mouse once a day (14 times in total). The administration solution was a 0.5% carboxymethyl cellulose solution containing 10 mmol/L sodium hydroxide and made up into three types of solution having test compound concentrations of 0.3, 1 or 3 mg/mL.

Test [2] deals with tape stripping-induced skin barrier disruption in Hos: HR-1 mice. The test can be described thus: Mouse model of skin barrier disruption induced by tape stripping (TEWL). In kind it is in vivo. To be noted: TEWL 0 and 1 hour after stripping, average ± standard deviation, n=10. Here is the method:
The effect of the test compounds on the skin barrier functions was evaluated using a model with skin barrier disruption induced by tape stripping. Trans-epidermal water loss (TEWL) is an evaluation indicator of the skin barrier functions (Journal of Investigative Dermatology, 126, p 2074-2086 (2006)).
Seven-week old male Hos: HR-1 mice (Hoshino Laboratory Animals, Inc.) were subjected to the test (n=10 for each treatment). For oral administration, solutions of test compounds with different concentrations were prepared as follows. […]
(2) The solution of the test compound prepared in (1) was diluted with a 0.5% methylcellulose solution to prepare a solution of the test compound so that the concentration of the test compound was 0.3 mg/mL. TEWL was measured before the test compound was administered (termed as TEWL [pre]). After the TEWL [pre] was measured, the solution of the test compound adjusted as in (1) or (2) was administered orally (dose: 10 mL/kg). […] TEWL immediately after and 1 hour after the tape stripping were measured (termed as TEWL [0 hour], TEWL [1 hour], respectively), % Barrier recovery was calculated in accordance with the following formula. % Barrier Recovery={(TEWL [0 hour]−TEWL [1 hour])/(TEWL [0 hour]−TEWL [pre])}*100
The result was expressed as the average ± standard deviation of the % barrier recovery. […]

As to `CO[C@H]1CN(C(=O)c2cc3nc(-c4cc(F)c(Cl)c(F)c4)cc(N(C)c4c(C)cccc4F)n3n2)CC[C@H]1CC(=O)O` [Example 10, 2-((3R,4S)-1-(5-(4-chloro-3,5-difluorophenyl)-7-((2-fluoro-6-methylphenyl)(methyl)amino)pyrazolo[1,5-a]pyrimidine-2-carbonyl)-3-methoxypiperidin-4-yl)acetic acid], the “Dermatitis score (total of findings 1 to 5)” value (“Dermatitis score” below) in test [1] (3 mg/kg orally once a day, 4 days after starting administration) was 9.1 ± 0.5; in test [1] (3 mg/kg orally once a day, 7 days after starting administration), 8.6 ± 0.7; in test [1] (3 mg/kg orally once a day, 11 days after starting administration) it was 6.7 ± 0.7; in test [1] (3 mg/kg orally once a day, 14 days after starting administration) it was 5.4 ± 0.7; in test [1] (3 mg/kg orally once a day, day 0 (day of grouping)), 9.7 ± 0.5; in test [1] (10 mg/kg orally once a day, 4 days after starting administration), 8.6 ± 0.9. Moreover, the “Dermatitis score” value is 7.7 ± 0.8 in test [1] (10 mg/kg orally once a day, 7 days after starting administration); 7.1 ± 1.0 in test [1] (10 mg/kg orally once a day, 11 days after starting administration); 5.9 ± 0.9 in test [1] (10 mg/kg orally once a day, 14 days after starting administration); 9.3 ± 0.6 in test [1] (10 mg/kg orally once a day, day 0 (day of grouping)); 8.7 ± 0.7 in test [1] (30 mg/kg orally once a day, 4 days after starting administration); 7.8 ± 0.8 in test [1] (30 mg/kg orally once a day, 7 days after starting administration). The “Dermatitis score” value in test [1] (30 mg/kg orally once a day, 11 days after starting administration) is recorded as 6.5 ± 0.8; in test [1] (30 mg/kg orally once a day, 14 days after starting administration) it was 5.0 ± 0.8; in test [1] (30 mg/kg orally once a day, day 0 (day of grouping)), 9.3 ± 0.6. Further, the “% Barrier recovery” value in test [2] (3 mg/kg orally 1 hour before tape stripping) stood at 24.2 ± 8.1%; in test [2] (10 mg/kg orally 1 hour before tape stripping, p < 0.05 versus Vehicle) it was 53.5 ± 4.9 %.
